Test results as given in ChEMBL document CHEMBL5579892, “Rational Design, Synthesis, and Structure-Activity Relationship of a Novel Isoquinolinone-Based Series of HBV Capsid Assembly Modulators Leading to the Identification of Clinical Candidate AB-836” (J Med Chem, 2024).
In brackets after ≈: the same amount, converted by molar mass. Each block holds one molecule with its values, some of them ahead of it. Activity calls are given as the source filed them. The calls are words filed in the database; no cut-off is given here.

Key:
Hepatitis B virus [1] = assay: Antiviral activity against HBV infected in HepDE19 cells; assay type: functional, organism-based
[2] = Microsomal stability in human liver microsomes assessed as intrinsic clearance; assay type: ADME, Microsome; settings: read-out: CLH
Cytochrome P450 1A2 = target: T1, Cytochrome P450 1A2 (Homo sapiens, UniProt P05177); assay: Inhibition of CYP1A2 (unknown origin); assay type: ADME
T1 sequence (P05177 whole entry): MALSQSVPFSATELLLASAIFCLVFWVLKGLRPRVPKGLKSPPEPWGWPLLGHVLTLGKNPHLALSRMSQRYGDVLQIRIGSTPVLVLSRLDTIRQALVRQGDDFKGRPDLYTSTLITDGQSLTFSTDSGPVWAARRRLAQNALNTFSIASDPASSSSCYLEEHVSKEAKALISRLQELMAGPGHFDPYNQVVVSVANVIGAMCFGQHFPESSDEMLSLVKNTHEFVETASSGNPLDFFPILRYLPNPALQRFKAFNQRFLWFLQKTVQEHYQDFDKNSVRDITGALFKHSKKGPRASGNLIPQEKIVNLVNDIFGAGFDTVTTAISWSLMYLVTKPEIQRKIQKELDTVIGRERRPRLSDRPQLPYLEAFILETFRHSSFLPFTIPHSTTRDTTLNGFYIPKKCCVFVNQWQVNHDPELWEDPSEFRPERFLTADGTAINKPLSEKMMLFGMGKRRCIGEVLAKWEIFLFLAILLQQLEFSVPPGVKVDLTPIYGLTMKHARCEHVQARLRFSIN

[3] = AUC (0 to infinity) in CD-1 mouse at 10 mg/kg, po; assay type: ADME, organism-based; settings: in vivo
Cytochrome P450 2D6 = Cytochrome P450 2D6 (Homo sapiens, UniProt P10635); assay: Inhibition of CYP2D6 (unknown origin); assay type: ADME
Hepatitis B virus [4] = assay: Antiviral activity against HBV infected in NOD.CB17-Prkdcscid/J mouse assessed as log10 reduction in viral DNA at 30 mg/kg, po administered twice daily for 7 days by qPCR analysis; assay type: functional; settings: time 7 day
[5] = Oral bioavailability in CD-1 mouse at 10 mg/kg; assay type: ADME, organism-based; settings: in vivo
Cytochrome P450 2B6 = target: T2, Cytochrome P450 2B6 (Homo sapiens, UniProt P20813); assay: Inhibition of CYP2B6 (unknown origin); assay type: ADME
T2 sequence (P20813 whole entry): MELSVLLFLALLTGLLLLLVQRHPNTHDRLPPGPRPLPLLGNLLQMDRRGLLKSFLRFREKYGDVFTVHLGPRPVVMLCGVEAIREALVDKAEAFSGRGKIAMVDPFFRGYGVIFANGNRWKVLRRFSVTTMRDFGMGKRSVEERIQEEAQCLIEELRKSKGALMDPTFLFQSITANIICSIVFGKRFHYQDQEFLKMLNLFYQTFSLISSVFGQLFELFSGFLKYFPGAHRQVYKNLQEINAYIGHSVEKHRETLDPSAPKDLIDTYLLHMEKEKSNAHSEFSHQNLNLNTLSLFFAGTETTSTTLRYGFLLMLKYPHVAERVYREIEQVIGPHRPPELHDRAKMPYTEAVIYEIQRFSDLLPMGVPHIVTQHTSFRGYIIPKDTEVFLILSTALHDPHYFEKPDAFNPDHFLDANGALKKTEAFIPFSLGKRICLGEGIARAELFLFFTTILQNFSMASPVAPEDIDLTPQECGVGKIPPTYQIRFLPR

[6] = Kinetic solubility in PBS at pH 7.4; assay type: physicochemical; settings: read-out: Kinetic_solubility
Cytochrome P450 2C9 = Cytochrome P450 2C9 (Homo sapiens, UniProt P11712); assay: Inhibition of CYP2C9 (unknown origin); assay type: ADME
Hepatitis B virus [7] = assay: Antiviral activity against HBV infected in po dosed NOD.CB17-Prkdcscid/J mouse assessed as reduction in viral DNA administered once daily or twice daily for 7 days by qPCR analysis; assay type: functional, organism-based; settings: dose 3-30 mg/kg, time 7.0 day
[8] = AUC (0 to infinity) in CD-1 mouse at 2 mg/kg, iv; assay type: ADME, organism-based; settings: in vivo
[9] = Microsomal stability in mouse liver microsomes assessed as intrinsic clearance; assay type: ADME, Microsome; settings: read-out: CLH
Hepatitis B virus [10] = assay: Antiviral activity against HBV infected in NOD.CB17-Prkdcscid/J mouse assessed as log10 reduction in viral DNA at 30 mg/kg, po administered once daily for 7 days by qPCR analysis; assay type: functional; settings: time 7 day
Hepatitis B virus [11] = assay: Antiviral activity against HBV infected in NOD.CB17-Prkdcscid/J mouse assessed as log10 reduction in viral DNA at 10 mg/kg, po administered twice daily for 7 days by qPCR analysis; assay type: functional; settings: time 7 day
[12] = Cytotoxicity against human HepDE19 cells by CellTiter-Glo analysis; assay type: toxicity, cell-based
[13] = Half-life in CD-1 mouse at 2 mg/kg, iv; assay type: ADME, organism-based; settings: in vivo
Cytochrome P450 3A4 = Cytochrome P450 3A4 (Homo sapiens, UniProt P08684); assay: Inhibition of CYP3A4 (unknown origin); assay type: ADME
Cytochrome P450 2C19 = Cytochrome P450 2C19 (Homo sapiens, UniProt P33261); assay: Inhibition of CYP2C19 (unknown origin); assay type: ADME
[14] = Half-life in CD-1 mouse at 10 mg/kg, po; assay type: ADME, organism-based; settings: in vivo
Hepatitis B virus [15] = assay: Antiviral activity against HBV infected in HepG2-hNTCP-C4 cells assessed as inhibition of cccDNA formation preincubated with virus followed by compound addition; assay type: functional, organism-based
[16] = Drug concentration in rat liver assessed as fold increase in EC90 concentration required for antiviral activity against HBV infected in HepDE19 cells at 10 mg/kg, po measured after 24 hrs; assay type: ADME, organism-based; settings: in vivo
[17] = Microsomal stability in rat liver microsomes assessed as intrinsic clearance; assay type: ADME, Microsome; settings: read-out: CLH
Hepatitis B virus [18] = assay: Antiviral activity against HBV infected in HepG2-hNTCP-C4 cells assessed as inhibition of HBsAg formation preincubated with virus followed by compound addition; assay type: functional, organism-based
Hepatitis B virus [19] = assay: Antiviral activity against HBV infected in NOD.CB17-Prkdcscid/J mouse assessed as log10 reduction in viral DNA at 10 mg/kg, po administered once daily for 7 days by qPCR analysis; assay type: functional; settings: time 7 day
[20] = Clearance in rat at 2 mg/kg, iv; assay type: ADME, organism-based; settings: in vivo
[21] = Clearance in CD-1 mouse at 2 mg/kg, iv; assay type: ADME, organism-based; settings: in vivo
[22] = Drug concentration in CD-1 mouse liver assessed as fold increase in EC90 concentration required for antiviral activity against HBV infected in HepDE19 cells at 10 mg/kg, po measured after 24 hrs; assay type: ADME, organism-based; settings: in vivo
Hepatitis B virus [23] = assay: Antiviral activity against HBV infected in HepG2-hNTCP-C4 cells assessed as inhibition of HBsAg formation preincubated with compound followed by viral infection; assay type: functional, organism-based
[24] = AUC (0 to infinity) in monkey at 10 mg/kg, po; assay type: ADME, organism-based, Macaca mulatta; settings: rhesus monkey, in vivo
Hepatitis B virus [25] = assay: Antiviral activity against HBV infected in HepDE19 cells assessed as effect on capsid particle formation at 1 uM; assay type: functional, organism-based
Hepatitis B virus [26] = assay: Antiviral activity against HBV infected in NOD.CB17-Prkdcscid/J mouse assessed as log10 reduction in viral DNA at 3 mg/kg, po administered once daily for 7 days by qPCR analysis; assay type: functional; settings: time 7 day
[27] = Clearance in monkey at 2 mg/kg, iv; assay type: ADME, organism-based, Macaca mulatta; settings: rhesus monkey, in vivo
[28] = Half-life in rat at 10 mg/kg, po; assay type: ADME, organism-based; settings: in vivo
[29] = Drug concentration in rat liver at 10 mg/kg, po measured after 24 hrs; assay type: ADME, organism-based; settings: read-out: Ct
Hepatitis B virus [30] = assay: Antiviral activity against HBV infected in HepG2-hNTCP-C4 cells assessed as inhibition of cccDNA formation preincubated with compound followed by viral infection; assay type: functional, organism-based
[31] = Half-life in monkey at 10 mg/kg, po; assay type: ADME, organism-based, Macaca mulatta; settings: rhesus monkey, in vivo
[32] = Drug concentration in CD-1 mouse liver at 10 mg/kg, po measured after 24 hrs; assay type: ADME, organism-based; settings: read-out: Ct
Hepatitis B virus [33] = assay: Antiviral activity against HBV infected in HepDE19 cells assessed as effect on pgRNA core protein at 1 uM; assay type: functional, organism-based
[34] = AUC (0 to infinity) in rat at 10 mg/kg, po; assay type: ADME, organism-based; settings: in vivo
[35] = Microsomal stability in monkey liver microsomes assessed as intrinsic clearance; assay type: ADME, Macaca mulatta, Microsome; settings: rhesus monkey, read-out: CLH

Cytochrome P450 2C19, sequence (P33261 whole entry): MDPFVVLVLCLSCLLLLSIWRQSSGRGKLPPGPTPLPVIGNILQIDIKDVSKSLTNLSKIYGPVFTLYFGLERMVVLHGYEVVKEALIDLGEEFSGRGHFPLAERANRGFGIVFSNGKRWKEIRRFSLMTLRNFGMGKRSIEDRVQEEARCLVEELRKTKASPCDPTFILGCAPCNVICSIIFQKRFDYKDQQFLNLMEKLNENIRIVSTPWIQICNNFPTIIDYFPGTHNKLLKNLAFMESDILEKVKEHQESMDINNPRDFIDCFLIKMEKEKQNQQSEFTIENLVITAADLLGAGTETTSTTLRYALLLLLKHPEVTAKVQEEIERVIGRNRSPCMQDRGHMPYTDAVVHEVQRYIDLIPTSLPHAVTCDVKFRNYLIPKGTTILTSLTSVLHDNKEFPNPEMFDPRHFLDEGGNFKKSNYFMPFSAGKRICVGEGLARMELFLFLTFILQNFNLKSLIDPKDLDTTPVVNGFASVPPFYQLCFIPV
Cytochrome P450 2C9, sequence (P11712 whole entry): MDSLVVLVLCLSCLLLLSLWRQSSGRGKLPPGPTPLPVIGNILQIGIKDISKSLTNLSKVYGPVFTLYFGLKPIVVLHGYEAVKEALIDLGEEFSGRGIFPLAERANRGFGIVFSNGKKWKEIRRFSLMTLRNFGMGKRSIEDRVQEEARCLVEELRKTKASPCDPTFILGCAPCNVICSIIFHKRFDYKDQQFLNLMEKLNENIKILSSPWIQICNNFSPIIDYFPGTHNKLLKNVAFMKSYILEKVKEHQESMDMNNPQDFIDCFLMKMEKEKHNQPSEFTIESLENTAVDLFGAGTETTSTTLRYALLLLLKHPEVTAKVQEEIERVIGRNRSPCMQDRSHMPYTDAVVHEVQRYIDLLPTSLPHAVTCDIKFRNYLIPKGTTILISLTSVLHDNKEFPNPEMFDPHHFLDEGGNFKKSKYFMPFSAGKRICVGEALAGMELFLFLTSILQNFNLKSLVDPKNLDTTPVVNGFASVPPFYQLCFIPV
Cytochrome P450 3A4, sequence (P08684 whole entry): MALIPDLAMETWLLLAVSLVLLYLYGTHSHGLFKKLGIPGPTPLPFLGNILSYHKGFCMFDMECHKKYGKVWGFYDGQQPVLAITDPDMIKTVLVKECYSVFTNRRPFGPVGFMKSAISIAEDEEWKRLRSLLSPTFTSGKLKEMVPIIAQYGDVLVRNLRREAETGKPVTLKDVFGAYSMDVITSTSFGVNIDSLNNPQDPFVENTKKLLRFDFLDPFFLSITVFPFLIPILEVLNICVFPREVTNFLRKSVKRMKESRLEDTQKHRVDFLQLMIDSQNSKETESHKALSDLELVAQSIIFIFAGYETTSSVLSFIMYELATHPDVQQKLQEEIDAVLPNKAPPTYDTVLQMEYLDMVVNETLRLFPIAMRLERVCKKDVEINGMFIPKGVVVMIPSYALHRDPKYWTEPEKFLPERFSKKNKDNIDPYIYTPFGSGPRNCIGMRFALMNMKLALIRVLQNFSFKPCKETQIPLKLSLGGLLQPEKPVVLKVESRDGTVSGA
Cytochrome P450 2D6, sequence (P10635 whole entry): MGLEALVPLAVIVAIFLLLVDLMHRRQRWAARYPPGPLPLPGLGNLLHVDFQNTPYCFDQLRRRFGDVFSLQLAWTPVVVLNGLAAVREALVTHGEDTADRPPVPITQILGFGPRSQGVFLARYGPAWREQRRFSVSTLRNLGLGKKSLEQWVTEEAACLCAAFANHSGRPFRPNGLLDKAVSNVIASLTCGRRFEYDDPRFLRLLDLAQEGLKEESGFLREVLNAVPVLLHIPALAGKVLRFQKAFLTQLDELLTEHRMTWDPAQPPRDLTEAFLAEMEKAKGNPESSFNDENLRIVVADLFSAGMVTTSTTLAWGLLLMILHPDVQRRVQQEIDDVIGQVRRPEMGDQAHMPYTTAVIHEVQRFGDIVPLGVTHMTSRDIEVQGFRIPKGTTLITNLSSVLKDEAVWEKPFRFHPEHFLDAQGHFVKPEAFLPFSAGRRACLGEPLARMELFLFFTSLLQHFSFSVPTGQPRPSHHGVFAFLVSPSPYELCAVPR

- EC50 (Hepatitis B virus [1]): 45 nM
- microsomal CLint [2]: 44 µL/min/mg
- IC50 (Cytochrome P450 1A2): > 20000 nM
- AUC(0-inf) [3]: 13800 ng·h/mL
- IC50 (Cytochrome P450 2D6): > 20000 nM
- bioavailability [5]: 80%
- IC50 (Cytochrome P450 2B6): > 20000 nM
- solubility kinetic [6]: 135 µM (≈ 50.5 µg/mL)
- IC50 (Cytochrome P450 2C9): > 20000 nM
- AUC(0-inf) [8]: 3520 ng·h/mL
- microsomal CLint [9]: 29 µL/min/mg
- half-life [13]: 2.4 h
- IC50 (Cytochrome P450 3A4): > 20000 nM
- IC50 (Cytochrome P450 2C19): > 20000 nM
- half-life [14]: 2.2 h
SMILES: CC(c1c[nH]c(=O)c2ccccc12)N(C)C(=O)Nc1ccc(F)c(Cl)c1 (stereo not drawn)
- log(activity) (Hepatitis B virus [4]): 1.4
- Activity (Hepatitis B virus [7]): Dose-Dependent Effect
- log(activity) (Hepatitis B virus [10]): 0.3
- log(activity) (Hepatitis B virus [11]): 0.6
- CC50 [12]: > 25000 nM

SMILES: C[C@H](c1c[nH]c(=O)c2cc(F)c(F)cc12)N(C)C(=O)Nc1ccc(F)c(C#N)c1
- EC50 (Hepatitis B virus [1]): 10 nM
- microsomal CLint [2]: 31 µL/min/mg
- Activity (Hepatitis B virus [15]): inactive
- fold change (FC) [16]: 20
- microsomal CLint [17]: 46 µL/min/mg
- Activity (Hepatitis B virus [18]): inactive
- AUC(0-inf) [3]: 13000 ng·h/mL
- log(activity) (Hepatitis B virus [19]): 2.5
- clearance [20]: 11 mL/min/kg
- clearance [21]: 13 mL/min/kg
- fold change (FC) [22]: 25
- EC50 (Hepatitis B virus [23]): 197 nM
- solubility kinetic [6]: 120 µM (≈ 48 µg/mL)
- AUC(0-inf) [24]: 9270 ng·h/mL
- Activity (Hepatitis B virus [25]): inactive
- log(activity) (Hepatitis B virus [26]): 1.4
- clearance [27]: 9 mL/min/kg
- microsomal CLint [9]: 10 µL/min/mg
- half-life [28]: 4.4 h
- CC50 [12]: > 25000 nM
- concentration at 24 h [29]: 334 ng/mL
- EC50 (Hepatitis B virus [30]): 175 nM
- half-life [14]: 3.1 h
- half-life [31]: 14 h
- concentration at 24 h [32]: 395 ng/mL
- Activity (Hepatitis B virus [33]): inactive
- AUC(0-inf) [34]: 5740 ng·h/mL
- microsomal CLint [35]: 34 µL/min/mg

- EC50 (Hepatitis B virus [1]): 23 nM
- microsomal CLint [2]: 26 µL/min/mg
- solubility kinetic [6]: < 4 µM
- microsomal CLint [9]: 50 µL/min/mg
SMILES: C[C@H](c1c[nH]c(=O)c2cc(F)c(F)cc12)N(C)C(=O)c1cc2ccccc2[nH]1
- CC50 [12]: > 25000 nM
